# Like-named read-outs stand apart in the source and are kept apart here.
# Legend:
# Panc 02.03 = experiment: Cell viability (SRB), Panc 02.03; type: cell-based; settings: Homo sapiens, Panc 02.03, 72 h
# Procedure: (§1) SW48 Parental, SW48 G12D, Panc-1, HPAF-II, Panc 02.03 and Panc 05.04 cell lines were seeded overnight at 5000 cells per well in a 96 well plate in recommended media (ATCC). Compounds were added the following day and viability was measured at 72h using the sulforhodamine B (SRB) colorimetric assay as follows. Cells were fixed by replacing media with 1% v/v Trichloroacetic Acid (TCA) (Sigma-Aldrich) at 4°C and incubated for 1h also at 4°C. Wells were washed thoroughly with copious amounts of deionised water before staining with Sulforhodamine B (SRB) (Sigma-Aldrich) solution (0.057% w/v in 1% v/v Acetic Acid (VWR)) for 30 min. Stain was aspirated and wells washed with several changes of 1% v/v Acetic Acid until unbound stain was removed, before air-drying. Bound stain was solubilized with 100μl / well 10mM Tris (pH 8.0) (Trizma Base (121.1) Sigma-Aldrich) with agitation for 10 min. Fluorescence intensity was recorded at Ex540nm / Em590nm using a BMG Pherastar Plus plate reader ([Vichai and Kirtikara, 2006]).
# Pancreatic organoids were extracted and cultured as detailed above ([Boj et al., 2015]). In brief, pancreatic organoids were seeded at 600 cells per well in a 96 well plate and allowed to grow for 7 days with media replenishment on the 3rd day. Full-grown organoids were then treated with compounds for 72h and viability determined using CellTitre Glo 3D assay (Promega). For viability assays with c-MET siRNA, cells were reverse transfected in a 6 cm dish using Dharmafect 1 (GE Dharmacon) per manufacturer’s instructions. On the following day, cells were trypsinised and plated onto 96 well plates or 6 well plates. The 96 well plates were treated with a dose range of compounds or DMSO, and viability was determined via SRB colorimetric assay. […]
# Cells were reverse-transfected with 50nM (SW48 parental, SW48 KRAS G12D and Panc-1) or 25nM (HeLa Flp-In T-REx parental cells) siRNA using Dharmafect (GE Dharmacon) as manufacturer’s recommendations. […] Viability was assessed after 72 hrs, with the SRB colorimetric assay. Knockdown efficiencies were determined by Western blot or RT-qPCR. […]
# [1] = test system: HCT116 BI 2536-Res. Clones; experiment: Viability of BI 2536-resistant HCT116 clones; type: cell-based, human
# Procedure: (§2) Viability is represented as percentage survival normalised to DMSO control. […] PCR reactions were carried out using Amplitaq Gold polymerase (Applied Biosystems N8080241) with a 25-cycle programme. […] Prepared samples were submitted for next generation sequencing using MiSeq Nano run with Nextera XT library preparation. Sequencing and subsequent bioinformatics were performed by Cambridge Genomic Services (University Of Cambridge).
# HCT116 KRAS G13D cells = experiment: Development of drug resistance under continuous treatment; type: cell-based, human; settings: continuous treatment at 5x GI50
# Procedure: HCT116 wild-type cells (Horizon Discovery Ltd.) cultured in McCoy's 5A (Life Technologies #26600) medium supplemented with 10% Foetal Calf Serum (Life Technologies #10270) were treated on three occasions with titrations of the PLK1 ATP-competitive inhibitor BI 2536 (Selleckchem #S1109) or Poloppin in order to determine the 2.5x GI50, 3x GI50 and 5x GI50 values for each compound required to initiate the development of resistance. Cells were subsequently treated with 2.5x GI50, 3x GI50 and 5x GI50 concentrations of either compound, changing media and compound every three to four days until resistant colonies emerged or no viable cells remained. Single cell clones were isolated from cells resistant to 5x GI50 BI 2536. Equivalent experiments using 3x GI50 or 2.5x GI50 doses of Poloppin or BI2536 yielded identical results (data not shown). BI 2536-resistant clones (HCT116 BI 2536-Res. Clones) were treated with BI2536 or Poloppin, alongside drug-sensitive parental HCT116 cells (HCT116 wt), and viability was assessed after 72 h. Viability is represented as percentage survival normalised to DMSO control. […]
# HPAF II = experiment: Cell viability (SRB), HPAF II; type: cell-based; settings: Homo sapiens, 72 h
# Procedure: as §1, with “Stain was aspirated and wells washed with several changes of 1% v/v Acetic Acid until unbound stain was removed, before air-drying. Bound stain was solubilized with 100μl / well 10mM Tris (pH 8.0) (Trizma Base (121.1) Sigma-Aldrich) with agitation for 10 min.” left out
# Pancreatic organoids were extracted and cultured as detailed above ([Boj et al., 2015]). […] Full-grown organoids were then treated with compounds for 72h and viability determined using CellTitre Glo 3D assay (Promega). […] The 96 well plates were treated with a dose range of compounds or DMSO, and viability was determined via SRB colorimetric assay. […]
# Cells were reverse-transfected with 50nM (SW48 parental, SW48 KRAS G12D and Panc-1) or 25nM (HeLa Flp-In T-REx parental cells) siRNA using Dharmafect (GE Dharmacon) as manufacturer’s recommendations. […] Viability was assessed after 72 hrs, with the SRB colorimetric assay. […]
# HCT116 wt = experiment: Viability of drug-sensitive parental HCT116 cells; type: cell-based; settings: Homo sapiens, HCT-116, 72 h
# Procedure: as §2
smiles,measurement,setting,value
O=C(O)CCc1ccc(-c2ccc(Br)cc2)n1-c1ccccc1C(F)(F)F [Poloppin],EC50,"Panc 02.03; read-out: EC50, % survival, Panc 02.03, All Stars control siRNA, 72 h",47.1 ± 1.03 µM
same,EC50,"Panc 02.03; read-out: EC50, % survival, Panc 02.03, siMET, 72 h",8.7 ± 1.16 µM
same,GI50,"[1]; BI2536-Res. (Mean), 72 h",retain sensitivity
same,GI50,"[1]; Homo sapiens, HCT-116, 72 h",7.7 µM
same,acquisition of drug resistance,HCT116 KRAS G13D cells,undetectable
same,EC50,"HPAF II; read-out: EC50, % survival, HPAF II, All Stars control siRNA, 72 h",12.4 ± 1.08 µM
same,EC50,"HPAF II; read-out: EC50, % survival, HPAF II, siMET, 72 h",5.6 ± 1.05 µM
same,GI50,HCT116 wt,11.1 µM

# From PMC5563081, “Modulating Protein-Protein Interactions of the Mitotic Polo-like Kinases to Target Mutant KRAS” (Cell Chemical Biology, 2017)
